Key:
Assay in all cases: relative viability (nuclei count vs DMSO), 5 days (fraction); higher = more cells survive
Linsitinib + Crizotinib = compound: C[C@]1(O)C[C@@H](c2nc(-c3ccc4ccc(-c5ccccc5)nc4c3)c3c(N)nccn32)C1 [Linsitinib] + C[C@@H](Oc1cc(-c2cnn(C3CCNCC3)c2)cnc1N)c1c(Cl)ccc(F)c1Cl [Crizotinib] (partner 1 µM)
How it was run: (§1)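 Lung cancer cell lines were seeded in 1536-well plates and dosed by pin tool the next day, with either a single drug or a fixed anchor-drug dose combined with five library-drug doses (not always all listed) spaced in √10 steps. Five days later, one step fixed the cells and stained their nuclei (final 0.05% Triton X-100, 1% formaldehyde, 1 ug/ml Hoechst), and nuclei were counted on 4× images. Relative viability is the nuclei count in treated wells divided by the count in vehicle wells, and each value is the median of duplicate plates.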

Ispinesib + Crizotinib = compound: Cc1ccc(C(=O)N(CCCN)[C@@H](c2nc3cc(Cl)ccc3c(=O)n2Cc2ccccc2)C(C)C)cc1 [Ispinesib] + C[C@@H](Oc1cc(-c2cnn(C3CCNCC3)c2)cnc1N)c1c(Cl)ccc(F)c1Cl [Crizotinib] (partner 1 µM)
How it was run: as §1

Ispinesib + Alpelisib = compound: Cc1ccc(C(=O)N(CCCN)[C@@H](c2nc3cc(Cl)ccc3c(=O)n2Cc2ccccc2)C(C)C)cc1 [Ispinesib] + Cc1nc(NC(=O)N2CCC[C@H]2C(N)=O)sc1-c1ccnc(C(C)(C)C(F)(F)F)c1 [Alpelisib] (partner 2 µM)
How it was run: as §1

Ispinesib + Bortezomib = compound: Cc1ccc(C(=O)N(CCCN)[C@@H](c2nc3cc(Cl)ccc3c(=O)n2Cc2ccccc2)C(C)C)cc1 [Ispinesib] + CC(C)C[C@H](NC(=O)[C@H](Cc1ccccc1)NC(=O)c1cnccn1)B(O)O [Bortezomib] (partner 0.002 µM)
How it was run: as §1

Row | Cell Line | relative viability (Linsitinib + Crizotinib; first compound 0.01 µM) | relative viability (Linsitinib + Crizotinib; first compound 0.03162 µM) | relative viability (Linsitinib + Crizotinib; first compound 0.1 µM) | relative viability (Linsitinib + Crizotinib; first compound 0.3162 µM) | relative viability (Linsitinib + Crizotinib; first compound 1 µM) | relative viability (Ispinesib + Crizotinib; first compound 0.001 µM) | relative viability (Ispinesib + Crizotinib; first compound 0.003162 µM) | relative viability (Ispinesib + Crizotinib; first compound 0.01 µM) | relative viability (Ispinesib + Crizotinib; first compound 0.03162 µM) | relative viability (Ispinesib + Crizotinib; first compound 0.1 µM) | relative viability (Ispinesib + Alpelisib; first compound 0.001 µM) | relative viability (Ispinesib + Alpelisib; first compound 0.003162 µM) | relative viability (Ispinesib + Alpelisib; first compound 0.01 µM) | relative viability (Ispinesib + Alpelisib; first compound 0.03162 µM) | relative viability (Ispinesib + Alpelisib; first compound 0.1 µM) | relative viability (Ispinesib + Bortezomib; first compound 0.001 µM) | relative viability (Ispinesib + Bortezomib; first compound 0.003162 µM) | relative viability (Ispinesib + Bortezomib; first compound 0.01 µM) | relative viability (Ispinesib + Bortezomib; first compound 0.03162 µM) | relative viability (Ispinesib + Bortezomib; first compound 0.1 µM)
1 | PC-3 [JPC-3] | 1.05 | 0.967 | 0.974 | 0.879 | 0.84 | 0.906 | 1.04 | 1.11 | 1.04 | 0.913 | 0.992 | 1.09 | 1.07 | 1.06 | 1.11 | 0.796 | 0.869 | 0.903 | 0.763 | 0.297
2 | NCI-H1703 | 0.585 |  | 0.595 | 0.93 | 0.35 | 0.811 | 0.454 | 0.185 | 0.0885 | 0.285 | 0.352 | 0.322 | 0.224 | 0.0938 | 0.135 | 0.28 | 0.298 | 0.0844 | 0.0907 | 0.106
3 | EPLC-272H | 0.774 | 0.995 | 0.873 |  | 0.733 | 1.06 | 0.842 | 1.23 | 0.883 | 0.805 | 0.989 | 1.12 | 1.01 | 0.529 | 0.972 | 0.869 | 1.13 | 0.935 | 0.655 | 0.163
4 | NCI-H1792 | 1.01 | 0.96 | 0.951 | 0.764 | 0.746 | 1.26 | 1.16 | 0.863 | 0.736 | 0.32 | 0.838 | 0.68 | 0.692 | 0.393 | 0.44 | 1.14 | 1.02 | 1.09 | 0.797 | 0.337
5 | NCI-H2085 | 0.956 | 0.939 | 0.999 | 0.68 | 0.763 | 0.931 | 0.973 | 0.701 | 0.777 | 0.56 | 0.997 | 1.04 | 1.04 | 1.02 | 0.688 | 1.08 | 1.08 | 1.18 | 0.818 | 0.484
6 | LK-2 | 0.249 | 0.224 | 0.222 | 0.234 | 0.257 | 0.169 | 0.269 | 0.213 | 0.21 | 0.333 | 1.33 | 0.97 | 1.23 | 1.07 | 0.412 |  |  |  |  | 
7 | NCI-H1395 |  |  |  |  |  |  |  |  |  |  | 1.14 | 0.945 | 0.87 | 0.398 | 0.493 |  |  |  |  | 
8 | ABC-1 | 1.26 | 1.01 | 1.01 | 0.614 | 0.905 | 1.1 | 1.15 | 0.908 | 0.248 | 0.334 | 1.36 | 0.881 | 1.25 | 0.343 | 0.315 | 0.269 | 0.317 | 0.302 | 0.197 | 0.273
9 | RERF-LC-KJ | 0.803 | 0.816 | 0.849 | 0.731 | 0.739 | 0.884 | 0.83 | 0.982 | 0.587 | 0.301 | 0.836 | 1.32 | 0.77 | 0.794 | 0.631 | 1.05 | 1.16 | 1.09 | 0.905 | 0.597
10 | LU99A | 0.591 | 0.716 | 0.605 | 0.432 | 0.462 | 0.503 | 0.589 | 0.569 | 0.421 | 0.231 | 0.527 | 0.572 | 0.66 | 0.318 | 0.208 | 1.06 | 1.12 | 1.33 | 0.223 | 0.183
11 | NCI-H1944 | 1.05 | 1.21 | 1.17 | 0.926 | 0.892 | 1.2 | 1.16 | 1.18 | 0.697 | 0.573 | 0.861 | 0.803 | 0.851 | 0.508 | 0.634 |  |  |  |  | 
12 | ChaGo-K-1 | 1.08 | 1.07 | 1.14 | 0.812 | 1.04 | 1.26 | 1.3 | 1.26 | 0.841 | 0.894 |  |  |  |  |  | 1.02 | 1.45 | 1.11 | 0.966 | 0.379
13 | NCI-H1793 |  |  |  |  |  |  |  |  |  |  | 0.677 | 0.713 | 1.17 | 0.783 | 0.328 |  |  |  |  | 
14 | A549 | 0.685 | 0.771 | 0.684 | 0.623 | 0.473 | 0.88 | 0.903 | 0.849 | 0.0553 | 0.181 | 0.655 | 0.761 | 1.08 | 0.0901 | 0.0827 |  |  |  |  | 
15 | NCI-H2170 | 1.12 | 1.02 | 1.2 | 0.89 | 1.11 | 1.34 | 1.31 | 1.33 | 0.693 | 0.411 | 0.892 | 0.765 | 0.947 | 0.603 | 0.484 |  |  |  |  | 
16 | NCI-H1650 | 1.03 | 1.08 | 0.963 | 0.915 | 0.799 | 0.91 | 1.05 | 0.769 | 0.223 | 0.325 |  |  |  |  |  | 0.187 | 0.211 | 0.188 | 0.173 | 0.205
17 | NCI-H358 | 0.661 | 0.676 | 0.588 | 0.448 | 0.415 | 0.617 | 0.515 | 0.665 | 0.409 | 0.424 | 0.885 | 0.874 | 0.989 | 0.573 | 0.283 |  |  |  |  | 
18 | SK-MES-1 | 0.955 | 1.06 | 1.01 | 0.826 | 0.931 | 1.07 | 1 | 1.11 | 0.751 | 0.284 | 0.905 | 1.42 | 1.07 | 0.681 | 0.286 |  |  |  |  | 

Reference: the supplement of paper PMC10307832
